Measurements as given in patent publication US12252480B2, “Salt forms and polymorphs of (R)-1-(4-(6-(2-(4-(3,3-difluorocyclobutoxy)-6-methylpyridin-2-yl)acetamido) pyridazin-3-yl)-2-fluorobutyl)-n-methyl-1H-1,2,3-triazole-4-carboxamide” (Board of Regents, The University of Texas System, priority 2015, dated 2025).

What was measured:
A549 cells = assay: Proliferation Assay (A549, Cell Titer Fluor); assay type: cell-based; conditions: Homo sapiens, 72 hours incubation, read-out: EC50 against A549 cell proliferation
Description: Proliferation Assay. A549 cells were routinely maintained in RPMI 1640 media (Gibco catalog number 11875-093) supplemented with 10% dialyzed fetal bovine serum using a humidified incubator (37° C., 5% CO2 and ambient O2). In preparation for the viability assay, cells were inoculated into 384-well black CulturPlates (Perkin Elmer) at a density of 1000 cells/well in a volume of 40 uL. Following a 24-hour incubation at 37° C., 5% CO2 and ambient O2, cells were treated with compound (10 uL) in a final DMSO concentration of 0.5% (v/v). The microplates were then incubated for 72 hours (37° C., 5% CO2 and ambient O2). Cell Titer Fluor (Promega) was subsequently added (10 uL of 6× reagent) and mixed for 15 minutes at room temperature. The plates were then incubated for 30 minutes (37° C., 5% CO2 and ambient O2) and fluorescence was subsequently read on the Perkin Elmer Envision plate reader. IC50 values were calculated using a four-parameter logistic curve fit.

[1] = Dynamic Vapor Sorption (DVS); assay type: physicochemical
Description: Dynamic Vapor Sorption (DVS) was examined with an SMS Advantage instrument. About 10 mg of sample was transferred into the instrument, and the weight change with respect to the atmospheric humidity at 25° C. was recorded accordingly, with the following parameters: Equilibrium: dm/dt: 0.01%/min. (for min: 10 min and max: 180 min); drying: 0% RH for 120 min; RH (%) measurement step: 10%; RH (%) measurement step scope: 0-90-0%.

For CNC(=O)c1cn(C[C@H](F)CCc2ccc(NC(=O)Cc3cc(OC4CC(F)(F)C4)cc(C)n3)nn2)nn1 [Example 1, (R)-1-(4-(6-(2-(4-(3,3-difluorocyclobutoxy)-6-methylpyridin-2-yl)acetamido)pyridazin-3-yl)-2-fluorobutyl)-N-methyl-1H-1,2,3-triazole-4-carboxamide], which EC50 (A549 cells) is on record?
The EC50 was under 100 nM.

What does the source list for CNC(=O)c1cn(C[C@H](F)CCc2ccc(NC(=O)Cc3cc(OC4CC(F)(F)C4)cc(C)n3)nn2)nn1 [Polymorph D, (R)-1-(4-(6-(2-(4-(3,3-difluorocyclobutoxy)-6-methylpyridin-2-yl)acetamido)pyridazin-3-yl)-2-fluorobutyl)-N-methyl-1H-1,2,3-triazole-4-carboxamide]?
hygroscopicity (DVS result) ([1]; 25° C., 0-80% RH): non-hygroscopic; Change of Mass, Desorption ([1]; Target % P/P0 0): 0.052%; Change of Mass, Sorption ([1]; Target % P/P0 0): 0.000%; Change of Mass, Desorption ([1]; Target % P/P0 10): 0.0276%; Change of Mass, Hysteresis ([1]; Target % P/P0 10): 0.0060%; Change of Mass, Sorption ([1]; Target % P/P0 10): 0.0216%; Change of Mass, Desorption ([1]; Target % P/P0 20): 0.0440%; Change of Mass, Hysteresis ([1]; Target % P/P0 20): 0.0104%; Change of Mass, Sorption ([1]; Target % P/P0 20): 0.0336%; Change of Mass, Desorption ([1]; Target % P/P0 30): 0.0587%; Change of Mass, Hysteresis ([1]; Target % P/P0 30): 0.0112%; Change of Mass, Sorption ([1]; Target % P/P0 30): 0.0474%; Change of Mass, Desorption ([1]; Target % P/P0 40): 0.0759%; Change of Mass, Hysteresis ([1]; Target % P/P0 40): 0.0181%; Change of Mass, Sorption ([1]; Target % P/P0 40): 0.0578%; Change of Mass, Desorption ([1]; Target % P/P0 50): 0.0906%; Change of Mass, Hysteresis ([1]; Target % P/P0 50): 0.0216%; Change of Mass, Sorption ([1]; Target % P/P0 50): 0.0690%; Change of Mass, Desorption ([1]; Target % P/P0 60): 0.1087%; Change of Mass, Hysteresis ([1]; Target % P/P0 60): 0.0259%; Change of Mass, Sorption ([1]; Target % P/P0 60): 0.0828%; Change of Mass, Desorption ([1]; Target % P/P0 70): 0.1294%; Change of Mass, Hysteresis ([1]; Target % P/P0 70): 0.0259%; Change of Mass, Sorption ([1]; Target % P/P0 70): 0.1035%; Change of Mass, Desorption ([1]; Target % P/P0 80): 0.1527%; Change of Mass, Hysteresis ([1]; Target % P/P0 80): 0.0190%; Change of Mass, Sorption ([1]; Target % P/P0 80): 0.1337%; Change of Mass, Desorption ([1]; Target % P/P0 90): 0.1768%; Change of Mass, Sorption ([1]; Target % P/P0 90): 0.1768%; form transformation after DVS (XRPD overlay) ([1]; after DVS 0-90-0% RH): no form transformation; water sorption ([1]; from 0-80% RH, 25° C.): 0.1%
